This is an account of results in publication PMC8533299, “Synthesis, In Silico Study, and Anti-Cancer Activity of Thiosemicarbazone Derivatives” (Biomedicines, 2021).

Structures are written as SMILES. Converted amounts (≈) assume the structure as drawn.

Holding throughout (assay type): cell-based
One experiment has as its system MCF-7, EAC, B16-F0 cells. The experiment can be described thus: MTT test, cancer cell lines overall. To be noted: over the cell lines tested; read-out: IC50 (range over treated cells). On the procedure:
(§1) The in vitro anticancer activities of the synthesized compounds were conducted using different cancerous and non-cancerous cell lines viz B16-F0 (Mouse melanoma), mouse Ehrlich Ascites Carcinoma (EAC), MCF-7 (Human breast cancer), MCF-10A (Human breast epithelial cells), and NIH/3T3 (Mouse fibroblast cells). All cell lines were procured from the National Centre for Cell Science, Pune, India. The procured cells were cultured in a six-well culture plate with Dulbecco’s Modified Eagle’s Medium (DMEM) supplemented with 10% fetal bovine serum in a humid CO2 incubator with 5% carbon dioxide at 37 °C.
The anti-cancer effect and cytotoxicity of both 3-MBTSc and 4-NBTSc compounds were evaluated against different cancerous (MCF-7, EAC, B16-F0 cells) and noncancerous cells (MCF-10A, NIH-3T3 cells) using MTT test. […] Later, the absorbance values were measured by an ELISA reader (Biorad, Hercules, CA, USA) at 570 nm wavelength using secondary wavelength as a reference at 620 nm and the percentages of cell viability was calculated using the following formula [59, 60, 61]. Cell viability (%)= Mean absorbance of treated cells/Mean absorbance of untreated cells × 100
(§2) Based on the cell viability data, the IC50 values of both compounds were calculated on different cancer cells by plotting their corresponding dose-responsive graphs.
The obtained data were statistically analyzed. […]

Experiment [1] has as its system mouse Ehrlich Ascites Carcinoma (EAC). The experiment can be described thus: MTT test on EAC cells. The conditions noted are these: for IC50: Mus musculus, Ehrlich, EAC cells, MTT, till 48 h. On the procedure: as §1
(§3) The anti-cancer effect and cytotoxicity of both 3-MBTSc and 4-NBTSc compounds were evaluated against different cancerous (MCF-7, EAC, B16-F0 cells) and noncancerous cells (MCF-10A, NIH-3T3 cells) using MTT test. In brief, the stock solutions of both the tested compounds were prepared by dissolving 1 mg of each compound in 1 mL of DMSO separately. Then, four different concentrations (5, 10, 12, and 20 µg/mL) of both compounds were used during the test along with the negative control. Also, 10 μg/mL of doxorubicin (Dox) was used as the positive control during the experiment. Both untreated and treated cells were incubated for next 24 and 48 h. Then, all the steps during the whole experiment were carried out by our earlier reported procedure. Later, the absorbance values were measured by an ELISA reader (Biorad, Hercules, CA, USA) at 570 nm wavelength using secondary wavelength as a reference at 620 nm and the percentages of cell viability was calculated using the following formula [59, 60, 61]. Cell viability (%)= Mean absorbance of treated cells/Mean absorbance of untreated cells × 100
as §2
(§4) The obtained data were statistically analyzed. The descriptive analysis was done and the IC50 values were calculated by fitting the sigmoidal dose responsive graph using GraphPad Prism (GraphPad Software, Inc., La Jolla, CA, USA). […]
(In general: Tetrazolium dyes change colour on reduction, which living cells bring about.)

The test system of the next experiment is B16-F0 (Mouse melanoma). The experiment can be described thus: MTT test on B16-F0 cells. To be noted: for IC50: Mus musculus, B16F0, B16-F0 cells, MTT, till 48 h. How it is done:
as §1, §3, §2, §4

One may read the IC50 as the concentration that gives 50% inhibition. `NC(=S)N[N-][CH+]c1ccc([N+](=O)[O-])cc1` [4-NBTSc, 4-Nitrobenzaldehyde thiosemicarbazone]: the half-inhibitory concentration (IC50) is 2.8 to 7.59 µg/mL (≈ 12.5 to 33.8 µM) in the experiment with MCF-7, EAC, B16-F0 cells; 3.832 ± 0.014 µg/mL (≈ 17.1 µM) in experiment [1]; 7.129 ± 0.012 µg/mL (≈ 31.8 µM) with B16-F0 (Mouse melanoma).

With `COc1cccc(C=NNC(N)=S)c1` [3-MBTSc, 3-Methoxybenzaldehyde thiosemicarbazone], the half-inhibitory concentration (IC50) is 2.82 to 14.2 µg/mL (≈ 13.5 to 68.1 µM) with MCF-7, EAC, B16-F0 cells; 3.355 ± 0.012 µg/mL (≈ 16 µM) in experiment [1]; 2.904 ± 0.013 µg/mL (≈ 13.9 µM) in the experiment with B16-F0 (Mouse melanoma). The “inhibition of cell growth” value in experiment [1] (EAC cell line, MTT assay) was determined as 50.31%; in the experiment on B16-F0 (Mouse melanoma) (B16-F0 cell line, MTT assay), 50.42%.
